Reference: patent publication US20120245137A1 (Zalicus Pharmaceuticals Ltd., priority 2009, published 2012)

Columns and labels:
[1] = target: human α1H T-type channels (Homo sapiens, UniProt O95180); test: T-type calcium channel block, whole cell patch clamp, α1H; assay type: cell-based; conditions: HEK cells stably expressing human α1H; mainly non-inactivated protocol; values above 10,000 nM represented as 10000
Experimental: T-type calcium channel blocking activity was assayed in human embryonic kidneycells, HEK 293 (Invitrogen), stably transfected with the T-type calcium channel subunits. Briefly, cells were cultured in Dulbecco's modified eagle medium (DMEM) supplemented with 10% fetal bovine serum, 200 U/ml penicillin, and 0.2 mg/mL streptomycin at 37° C. with 5% CO2. At 85% confluency, cells were split with 0.25% trypsin/1 mM EDTA and plated at 10% confluency on glass coverslips. At 12 hours, the medium was replaced, and the cells stably transfected using a standard calcium phosphate protocol and the appropriate calcium channel cDNA's. Fresh DMEM was supplied, and the cells transferred to 28° C./5% CO2.
Standard patch-clamp techniques were employed to identify blockers of T-type currents. Briefly, previously described HEK cell lines stably expressing human α1G, α1H, and α1I T-type channels were used for all the recordings (passage #: 4-20, 37° C., 5% CO2). Whole cell patch clamp experiments were performed using an Axopatch 200B amplifier (Axon Instruments, Burlingame, Calif.) linked to a personal computer equipped with pCLAMP software. Data were analyzed using Clampfit (Axon Instruments) and SigmaPlot 4.0 (Jandel Scientific). To obtain T-type currents, plastic dishes containing semi-confluent cells were positioned on the stage of a ZEISS AXIOVERT S100 microscope after replacing the culture medium with external solution (Table 2). Whole-cell patches were obtained using pipettes (borosilicate glass with filament, O.D.: 1.5 mm, I.D.: 0.86 mm, 10 cm length), fabricated on a SUTTER P-97 puller with resistance values of ˜5 MΩ (Table 3).
T-type currents were reliably obtained by using two voltage protocols: • “non-inactivating,” and • “inactivation.”
Test compounds were dissolved in external solution, 0.1-0.01% DMSO. After ˜10 minutes rest, they were applied by gravity close to the cell using a WPI microfil tubing. The “non-inactivated” pre-pulse was used to examine the resting block of a compound. The “inactivated” protocol was employed to study voltage-dependent block.

[2] = target: human α1G T-type channels (Homo sapiens, UniProt O43497); test: T-type calcium channel block, whole cell patch clamp, α1G; assay type: cell-based; conditions: HEK cells stably expressing human α1G; mainly non-inactivated protocol; values above 10,000 nM represented as 10000
Chain of human α1G T-type channels (O43497 whole entry, the tested form may be a part): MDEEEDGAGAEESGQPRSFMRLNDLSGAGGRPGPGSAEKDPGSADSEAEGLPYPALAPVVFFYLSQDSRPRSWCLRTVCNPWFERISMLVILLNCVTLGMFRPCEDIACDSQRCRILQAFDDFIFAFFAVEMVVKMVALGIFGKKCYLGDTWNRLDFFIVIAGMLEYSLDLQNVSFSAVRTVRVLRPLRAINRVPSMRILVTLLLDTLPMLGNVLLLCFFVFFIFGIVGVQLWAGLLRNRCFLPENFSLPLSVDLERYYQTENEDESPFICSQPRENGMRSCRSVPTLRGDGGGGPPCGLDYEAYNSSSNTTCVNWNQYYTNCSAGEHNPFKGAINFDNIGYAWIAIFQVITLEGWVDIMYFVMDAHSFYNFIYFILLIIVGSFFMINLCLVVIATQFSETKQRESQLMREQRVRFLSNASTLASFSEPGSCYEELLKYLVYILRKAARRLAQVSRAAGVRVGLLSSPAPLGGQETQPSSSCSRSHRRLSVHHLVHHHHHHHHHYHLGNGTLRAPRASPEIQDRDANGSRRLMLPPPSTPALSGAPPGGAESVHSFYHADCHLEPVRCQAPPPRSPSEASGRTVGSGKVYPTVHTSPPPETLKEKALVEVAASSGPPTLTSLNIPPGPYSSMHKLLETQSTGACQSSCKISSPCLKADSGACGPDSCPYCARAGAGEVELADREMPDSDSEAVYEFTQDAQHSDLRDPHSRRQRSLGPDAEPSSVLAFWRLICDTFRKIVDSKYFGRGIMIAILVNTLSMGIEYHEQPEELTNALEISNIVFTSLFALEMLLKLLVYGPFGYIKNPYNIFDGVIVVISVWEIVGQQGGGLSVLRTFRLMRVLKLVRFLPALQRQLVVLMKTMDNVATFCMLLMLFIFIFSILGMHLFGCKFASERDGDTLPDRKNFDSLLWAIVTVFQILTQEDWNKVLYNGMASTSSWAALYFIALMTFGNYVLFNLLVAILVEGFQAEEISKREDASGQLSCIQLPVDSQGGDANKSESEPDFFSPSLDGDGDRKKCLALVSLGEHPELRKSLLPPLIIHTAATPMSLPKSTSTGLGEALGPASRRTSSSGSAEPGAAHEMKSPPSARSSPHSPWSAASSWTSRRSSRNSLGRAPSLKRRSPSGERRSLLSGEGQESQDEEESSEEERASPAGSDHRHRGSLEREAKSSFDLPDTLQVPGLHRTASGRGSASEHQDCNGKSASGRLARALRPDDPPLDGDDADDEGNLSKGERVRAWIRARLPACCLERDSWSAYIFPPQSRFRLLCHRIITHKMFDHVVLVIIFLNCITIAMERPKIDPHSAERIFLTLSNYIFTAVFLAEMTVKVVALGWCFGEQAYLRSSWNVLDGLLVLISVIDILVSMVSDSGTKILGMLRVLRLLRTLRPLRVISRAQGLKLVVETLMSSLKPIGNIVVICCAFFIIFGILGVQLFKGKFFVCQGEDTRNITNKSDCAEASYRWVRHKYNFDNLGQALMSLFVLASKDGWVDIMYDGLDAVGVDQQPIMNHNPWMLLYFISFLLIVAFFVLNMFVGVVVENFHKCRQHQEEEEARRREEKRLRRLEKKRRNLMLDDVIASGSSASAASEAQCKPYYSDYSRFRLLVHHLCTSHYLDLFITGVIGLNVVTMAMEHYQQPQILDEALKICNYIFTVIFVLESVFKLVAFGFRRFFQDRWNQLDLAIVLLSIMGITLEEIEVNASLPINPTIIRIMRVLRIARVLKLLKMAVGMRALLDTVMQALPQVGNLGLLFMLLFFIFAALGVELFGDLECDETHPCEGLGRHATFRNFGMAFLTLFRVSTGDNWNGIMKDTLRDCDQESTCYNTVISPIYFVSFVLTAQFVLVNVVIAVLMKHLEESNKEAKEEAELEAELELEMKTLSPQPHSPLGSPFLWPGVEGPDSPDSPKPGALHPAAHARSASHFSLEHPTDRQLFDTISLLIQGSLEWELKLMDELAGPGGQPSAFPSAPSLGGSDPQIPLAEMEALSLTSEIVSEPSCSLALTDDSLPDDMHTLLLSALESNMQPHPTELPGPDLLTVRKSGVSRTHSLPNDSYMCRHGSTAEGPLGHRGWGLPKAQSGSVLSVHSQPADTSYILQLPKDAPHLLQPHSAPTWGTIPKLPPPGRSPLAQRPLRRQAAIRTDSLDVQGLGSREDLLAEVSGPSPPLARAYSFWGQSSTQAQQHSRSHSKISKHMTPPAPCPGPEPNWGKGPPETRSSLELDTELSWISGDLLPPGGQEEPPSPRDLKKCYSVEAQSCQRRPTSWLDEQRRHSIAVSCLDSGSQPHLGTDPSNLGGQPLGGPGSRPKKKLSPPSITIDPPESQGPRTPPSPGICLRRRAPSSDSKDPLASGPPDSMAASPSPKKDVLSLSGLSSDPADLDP
In short: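 Whole-cell T-type currents, stably transfected HEK 293 (human α1G/α1H), passage 4-20. Cmpd in external soln, 0.1-0.01% DMSO, local gravity perfusion after ~10 min rest. Two voltage protocols: non-inactivating (resting block), inactivation (voltage-dependent block).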

Chain of human α1H T-type channels (O95180 whole entry): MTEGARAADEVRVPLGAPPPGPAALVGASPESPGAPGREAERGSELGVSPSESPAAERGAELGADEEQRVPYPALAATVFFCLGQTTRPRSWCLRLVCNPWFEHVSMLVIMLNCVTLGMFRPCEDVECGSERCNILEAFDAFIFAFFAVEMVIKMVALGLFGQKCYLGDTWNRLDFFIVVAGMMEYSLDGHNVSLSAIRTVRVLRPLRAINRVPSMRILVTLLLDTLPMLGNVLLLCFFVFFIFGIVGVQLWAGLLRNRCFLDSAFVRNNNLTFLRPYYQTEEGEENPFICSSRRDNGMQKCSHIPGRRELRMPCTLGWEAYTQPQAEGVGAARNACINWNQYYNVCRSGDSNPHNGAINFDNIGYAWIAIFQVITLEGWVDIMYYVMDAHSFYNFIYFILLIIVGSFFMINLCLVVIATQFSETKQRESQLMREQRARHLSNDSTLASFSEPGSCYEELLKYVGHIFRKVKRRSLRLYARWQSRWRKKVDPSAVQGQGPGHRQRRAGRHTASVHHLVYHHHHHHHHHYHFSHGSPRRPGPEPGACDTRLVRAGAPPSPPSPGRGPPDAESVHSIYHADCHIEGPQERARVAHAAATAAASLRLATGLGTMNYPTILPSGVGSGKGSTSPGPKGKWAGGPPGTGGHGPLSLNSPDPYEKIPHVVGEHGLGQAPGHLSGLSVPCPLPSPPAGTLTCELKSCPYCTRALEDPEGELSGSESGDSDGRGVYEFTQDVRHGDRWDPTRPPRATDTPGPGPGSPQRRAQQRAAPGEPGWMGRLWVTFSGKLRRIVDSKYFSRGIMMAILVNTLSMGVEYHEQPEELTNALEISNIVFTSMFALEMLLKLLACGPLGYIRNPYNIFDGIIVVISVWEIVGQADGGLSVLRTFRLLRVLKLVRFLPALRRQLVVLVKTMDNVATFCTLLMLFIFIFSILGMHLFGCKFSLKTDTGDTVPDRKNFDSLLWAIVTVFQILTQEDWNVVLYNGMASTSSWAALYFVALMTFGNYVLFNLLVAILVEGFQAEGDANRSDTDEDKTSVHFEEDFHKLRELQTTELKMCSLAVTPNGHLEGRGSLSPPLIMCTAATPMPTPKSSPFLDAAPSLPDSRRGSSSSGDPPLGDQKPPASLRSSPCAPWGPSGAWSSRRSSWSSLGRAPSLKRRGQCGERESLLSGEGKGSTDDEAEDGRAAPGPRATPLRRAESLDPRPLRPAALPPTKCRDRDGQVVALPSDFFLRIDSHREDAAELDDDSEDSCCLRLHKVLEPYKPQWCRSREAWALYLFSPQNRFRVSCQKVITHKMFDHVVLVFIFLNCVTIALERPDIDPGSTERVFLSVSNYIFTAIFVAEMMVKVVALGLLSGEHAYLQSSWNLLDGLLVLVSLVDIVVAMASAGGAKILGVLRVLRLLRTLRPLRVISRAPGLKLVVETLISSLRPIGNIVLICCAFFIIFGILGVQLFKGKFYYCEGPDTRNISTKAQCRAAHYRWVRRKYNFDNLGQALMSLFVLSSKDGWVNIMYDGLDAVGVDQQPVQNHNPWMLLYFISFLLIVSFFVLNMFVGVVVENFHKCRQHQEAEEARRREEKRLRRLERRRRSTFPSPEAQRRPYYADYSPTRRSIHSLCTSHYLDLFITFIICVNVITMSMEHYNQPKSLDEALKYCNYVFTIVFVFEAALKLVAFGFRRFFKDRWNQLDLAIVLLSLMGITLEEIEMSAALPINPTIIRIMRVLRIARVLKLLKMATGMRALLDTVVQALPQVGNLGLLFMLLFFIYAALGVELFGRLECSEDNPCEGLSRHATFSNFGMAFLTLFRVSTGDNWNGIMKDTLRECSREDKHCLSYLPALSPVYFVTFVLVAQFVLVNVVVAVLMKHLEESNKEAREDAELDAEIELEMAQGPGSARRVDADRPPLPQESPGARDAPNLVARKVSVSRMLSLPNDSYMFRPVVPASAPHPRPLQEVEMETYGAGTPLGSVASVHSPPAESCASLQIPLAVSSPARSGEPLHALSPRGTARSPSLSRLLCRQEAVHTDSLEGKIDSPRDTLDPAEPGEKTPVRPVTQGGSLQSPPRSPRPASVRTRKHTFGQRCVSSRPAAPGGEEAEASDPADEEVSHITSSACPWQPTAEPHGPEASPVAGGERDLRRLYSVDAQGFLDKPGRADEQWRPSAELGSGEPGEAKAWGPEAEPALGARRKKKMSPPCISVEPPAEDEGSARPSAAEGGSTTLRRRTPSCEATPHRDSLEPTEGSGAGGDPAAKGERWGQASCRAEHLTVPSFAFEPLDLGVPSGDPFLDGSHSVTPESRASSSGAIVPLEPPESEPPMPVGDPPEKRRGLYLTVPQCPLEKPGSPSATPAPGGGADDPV

An IC50 [1] of 990 nM and an IC50 [2] of 690 nM were found for `CS(=O)(=O)c1ccc(C(=O)N[C@H]2CC[C@H](S(=O)(=O)c3cccc(C(F)(F)F)c3)CC2)c(Cl)c1` [Compound 122, 2-chloro-4-(methylsulfonyl)-N-((1R,4R)-4-(3-(trifluoromethyl)phenylsulfonyl)cyclohexyl)benzamide] in this work.

An IC50 [1] of 6730 nM and an IC50 [2] greater than 10000 nM were found for `Cc1cc(C(=O)N[C@H]2CC[C@H](CS(=O)(=O)c3cccc(C(F)(F)F)c3)CC2)c(C(F)(F)F)o1` [Compound 172, 5-methyl-2-(trifluoromethyl)-N-((1R,4R)-4-((3-(trifluoromethyl)phenylsulfonyl)methyl)cyclohexyl)furan-3-carboxamide] in this work.

An IC50 [1] greater than 10000 nM and an IC50 [2] of 7340 nM were found for `CS(=O)(=O)c1nc(C(F)(F)F)ccc1C(=O)N[C@H]1CC[C@@](F)(S(=O)(=O)c2cccc(OC(F)(F)F)c2)CC1` [Compound 258, N-((1S,4S)-4-fluoro-4-(3-(trifluoromethoxy)phenylsulfonyl)cyclohexyl)-2-(methylsulfonyl)-6-(trifluoromethyl)nicotinamide] in this work.

An IC50 [1] of 550 nM and an IC50 [2] of 450 nM were found for `CC(C)(C(=O)Nc1nc2ccc(Cl)cc2s1)S(=O)(=O)c1cccc(C(F)(F)F)c1` [Compound 449, N-(6-chlorobenzo[d]thiazol-2-yl)-2-methyl-2-(3-(trifluoromethyl)phenylsulfonyl)propanamide] in this work.

An IC50 [1] of 2410 nM and an IC50 [2] of 260 nM were found for `CC(C)(C(=O)NCCc1ccc(Cl)c(Cl)c1)S(=O)(=O)c1cccc(C(F)(F)F)c1` [Compound 451, N-(3,4-dichlorophenethyl)-2-methyl-2-(3-(trifluoromethyl)phenylsulfonyl)propanamide] in this work.

An IC50 [1] of 9810 nM and an IC50 [2] of 570 nM were found for `CN(CCc1ccc(F)cc1)C(=O)C(C)(C)S(=O)(=O)c1cccc(C(F)(F)F)c1` [Compound 452, N-(4-fluorophenethyl)-N,2-dimethyl-2-(3-(trifluoromethyl)phenylsulfonyl)propanamide] in this work.

An IC50 [1] of 3930 nM and an IC50 [2] of 690 nM were found for `CN(CCc1ccc(Cl)c(Cl)c1)C(=O)C(C)(C)S(=O)(=O)c1cccc(C(F)(F)F)c1` [Compound 453, N-(3,4-dichlorophenethyl)-N,2-dimethyl-2-(3-(trifluoromethyl)phenylsulfonyl)propanamide] in this work.

An IC50 [1] of 3480 nM and an IC50 [2] of 610 nM were found for `CN(Cc1ccc(F)c(C(F)(F)F)c1)C(=O)C(C)(C)S(=O)(=O)c1cccc(C(F)(F)F)c1` [Compound 454, N-(4-fluoro-3-(trifluoromethyl)benzyl)-N,2-dimethyl-2-(3-(trifluoromethyl)phenylsulfonyl)propanamide] in this work.

An IC50 [1] of 2500 nM and an IC50 [2] of 400 nM were found for `CC(C)(CNC(=O)c1cc(F)cc(Cl)c1)S(=O)(=O)c1cccc(C(F)(F)F)c1` [Compound 455, 3-chloro-5-fluoro-N-(2-methyl-2-(3-(trifluoromethyl)phenylsulfonyl)propyl)benzamide] in this work.

An IC50 [1] of 910 nM and an IC50 [2] of 710 nM were found for `CC(C)(CNC(=O)c1ccc(F)c(C(F)(F)F)c1)S(=O)(=O)c1cccc(C(F)(F)F)c1` [Compound 456, 4-fluoro-N-(2-methyl-2-(3-(trifluoromethyl)phenylsulfonyl)propyl)-3-(trifluoromethyl)benzamide] in this work.

An IC50 [1] of 1200 nM and an IC50 [2] of 560 nM were found for `CC(C)(CNC(=O)c1nc2cc(C(F)(F)F)ccc2[nH]1)S(=O)(=O)c1cccc(C(F)(F)F)c1` [Compound 457, N-(2-methyl-2-(3-(trifluoromethyl)phenylsulfonyl)propyl)-5-(trifluoromethyl)-1H-benzo[d]imidazole-2-carboxamide] in this work.

An IC50 [1] of 1920 nM and an IC50 [2] of 900 nM were found for `CC(C)(C(=O)Nc1nc2cc(C(F)(F)F)ccc2[nH]1)S(=O)(=O)c1cccc(C(F)(F)F)c1` [Compound 458, 2-methyl-N-(5-(trifluoromethyl)-1H-benzo[d]imidazol-2-yl)-2-(3-(trifluoromethyl)phenylsulfonyl)propanamide] in this work.

An IC50 [1] greater than 10000 nM and an IC50 [2] of 820 nM were found for `CC1(NC(=O)CNCC(C)(C)S(=O)(=O)c2cccc(C(F)(F)F)c2)CCC1` [Compound 459, 2-(2-methyl-2-(3-(trifluoromethyl)phenylsulfonyl)propylamino)-N-(l-methylcyclobutyl)acetamide] in this work.

An IC50 [1] greater than 10000 nM and an IC50 [2] of 100 nM were found for `CC(C)(CCS(=O)(=O)c1cccc(C(F)(F)F)c1)S(=O)(=O)c1cccc(C(F)(F)F)c1` [Compound 460] in this work.

An IC50 [1] greater than 10000 nM and an IC50 [2] of 190 nM were found for `CC(C)(CCS(=O)(=O)c1cc(Cl)cc(Cl)c1)S(=O)(=O)c1cccc(C(F)(F)F)c1` [Compound 461, 1,3-dichloro-5-(3-methyl-3-(3-(trifluoromethyl)phenylsulfonyl)butylsulfonyl)benzene] in this work.

An IC50 [1] greater than 10000 nM and an IC50 [2] of 560 nM were found for `CC(C)(CCS(=O)(=O)c1ccc(Cl)cc1)S(=O)(=O)c1cccc(C(F)(F)F)c1` [Compound 462, 1-(4-(4-chlorophenylsulfonyl)-2-methylbutan-2-ylsulfonyl)-3-(trifluoromethyl)benzene] in this work.

An IC50 [1] greater than 10000 nM and an IC50 [2] of 350 nM were found for `CC(C)(CCS(=O)(=O)c1cccc(OC(F)(F)F)c1)S(=O)(=O)c1cccc(C(F)(F)F)c1` [Compound 463, 1-(3-methyl-3-(3-(trifluoromethyl)phenylsulfonyl)butylsulfonyl)-3-(trifluoromethoxy)benzene] in this work.

An IC50 [1] of 2140 nM and an IC50 [2] of 60 nM were found for `COc1cc(F)cc(C(=O)NCCC(C)(C)S(=O)(=O)c2cccc(C(F)(F)F)c2)c1` [Compound 464, 3-fluoro-5-methoxy-N-(3-methyl-3-(3-(trifluoromethyl)phenylsulfonyl)butyl) benzamide] in this work.

An IC50 [1] of 960 nM and an IC50 [2] of 50 nM were found for `CC(C)(CCNC(=O)c1cc(F)cc(Cl)c1)S(=O)(=O)c1cccc(C(F)(F)F)c1` [Compound 465, 3-chloro-5-tluoro-N-(3-methyl-3-(3-(trifluoromethyl)phenylsulfonyl)butyl) benzamide] in this work.

An IC50 [1] of 1170 nM and an IC50 [2] of 170 nM were found for `Cn1nc(C(F)(F)F)cc1C(=O)NCCC(C)(C)S(=O)(=O)c1cccc(C(F)(F)F)c1` [Compound 467, 1-methyl-N-(3-methyl-3-(3-(trifluoromethyl)phenylsulfonyl)butyl)-3-(trifluoromethyl)-1H-pyrazole-5-carboxamide] in this work.

An IC50 [1] of 4860 nM and an IC50 [2] of 350 nM were found for `CC(C)(CCNC(=O)c1ccc(F)cc1)S(=O)(=O)c1cccc(C(F)(F)F)c1` [Compound 468, 4-fluoro-N-(3-methyl-3-(3-(trifluoromethyl)phenylsulfonyl)butyl) benzamide] in this work.

An IC50 [1] of 5040 nM and an IC50 [2] of 430 nM were found for `CC(C)(CCNC(=O)c1ccc(C(F)(F)F)cc1S(C)(=O)=O)S(=O)(=O)c1cccc(C(F)(F)F)c1` [Compound 469, N-(3-methyl-3-(3-(trifluoromethyl)phenylsulfonyl)butyl)-2-(methylsulfonyl)-4-(trifluoromethyl)benzamide] in this work.

An IC50 [1] of 5840 nM and an IC50 [2] of 130 nM were found for `CC(C)(CCNC(=O)c1ccc(C(F)(F)F)cn1)S(=O)(=O)c1cccc(C(F)(F)F)c1` [Compound 470, N-(3-methyl-3-(3-(trifluoromethyl)phenylsulfonyl)butyl)-5-(trifluoromethyl)picolinamide] in this work.

An IC50 [1] greater than 10000 nM and an IC50 [2] of 610 nM were found for `CC(C)(C)NC(=O)CNCCC(C)(C)S(=O)(=O)c1cccc(C(F)(F)F)c1` [Compound 471, N-tert-butyl-2-(3-methyl-3-(3-(trifluoromethyl)phenylsulfonyl)butylamino) acetamide] in this work.

An IC50 [1] of 3470 nM and an IC50 [2] of 620 nM were found for `CC(C)(CCNCC(=O)NC1CCCCC1)S(=O)(=O)c1cccc(C(F)(F)F)c1` [Compound 472, N-cyclohexyl-2-(3-methyl-3-(3-(trifluoromethyl)phenylsulfonyl)butylamino) acetamide] in this work.

An IC50 [1] of 9280 nM and an IC50 [2] of 680 nM were found for `CN(C(=O)CNCCC(C)(C)S(=O)(=O)c1cccc(C(F)(F)F)c1)C(C)(C)C` [Compound 473, N-tert-butyl-N-methyl-2-(3-methyl-3-(3-(trifluoromethyl)phenylsulfonyl)butylamino) acetamide] in this work.

An IC50 [1] greater than 10000 nM and an IC50 [2] of 560 nM were found for `CC(C)(CNC(=O)c1ccc(C(F)(F)F)cc1S(C)(=O)=O)S(=O)(=O)c1cccc(C(F)(F)F)c1` [Compound 474, N-(2-methyl-2-(3-(trifluoromethyl)phenylsulfonyl)propyl)-2-(methylsulfonyl)-4-(tritluoromethyl)benzamide] in this work.

An IC50 [1] of 6970 nM and an IC50 [2] of 480 nM were found for `CC(C)(CNC(=O)c1cc(C(F)(F)F)ccn1)S(=O)(=O)c1cccc(C(F)(F)F)c1` [Compound 475, N-(2-methyl-2-(3-(trifluoromethyl)phenylsulfonyl)propyl)-4-(trifluoromethyl)picolinamide] in this work.
